Patent US12673918B2, “Small molecule RPN13 inhibitors with antitumor properties” (The Johns Hopkins University, priority 2019, dated 2026)
Read-outs that look alike come from different tables or passages of the source.

Tests used:
HeLa cells = experiment: XTT cytotoxicity assay, HeLa; assay type: cell-based, human
From the text: (§1) The impact of substituents of the aromatic ring on the potency of molecules was also examined. The presence of either an electron withdrawing group (EWG) or an electron donating group (EDG) influences the reactivity of a Michael acceptor towards the target protein but can also impact specificity/selectivity.

SKOV3 cells = experiment: XTT cytotoxicity assay, SKOV3; assay type: cell-based, human
From the text: as §1

[1] = Table 2, read-out: IC50 HeLa (bridge compounds)
[2] = Table 2, read-out: IC50 SKOV3 (bridge compounds)
[3] = Table 1, XTT assay, read-out: IC50 HeLa
[4] = Table 1, XTT assay, read-out: IC50 SKOV3

C=CC(=O)N1C2CCC1C(=Cc1ccc([N+](=O)[O-])cc1)C(=O)C2=Cc1ccc([N+](=O)[O-])cc1 [RA333]
IC50 (HeLa cells; [1]): 112 nM | IC50 (SKOV3 cells; [2]): 167 nM

CC(=O)N1C2CCC1C(=Cc1ccccc1)C(=O)C2=Cc1ccccc1 [RA337]
IC50 (HeLa cells; [1]): 186 nM | IC50 (SKOV3 cells; [2]): 231 nM

O=C1C(=Cc2ccccc2)C2CCC(N2)C1=Cc1ccccc1 [RA330]
IC50 (HeLa cells; [1]): 239 nM | IC50 (SKOV3 cells; [2]): 278 nM

CC(=O)NC(Cc1ccccc1)C(=O)N1CC(=Cc2ccc([N+](=O)[O-])cc2)C(=O)C(=Cc2ccc([N+](=O)[O-])cc2)C1 (stereo not drawn) [RA183Ac]
IC50 (HeLa cells; [3]): 56 nM | IC50 (SKOV3 cells; [4]): 71 nM

COc1cc(C=C2CN(C(=O)C(N)Cc3ccccc3)CC(=Cc3cc(OC)c(OC)c(OC)c3)C2=O)cc(OC)c1OC (stereo not drawn) [RA-TMP]
IC50 (HeLa cells; [3]): 78 nM | IC50 (SKOV3 cells; [4]): 125 nM

NCC(=O)N1CC(=Cc2ccc(Cl)c(Cl)c2)C(=O)C(=Cc2ccc(Cl)c(Cl)c2)C1 [RA7-Gly]
IC50 (HeLa cells; [3]): 65 nM | IC50 (SKOV3 cells; [4]): 78 nM

N#CCC(=O)NC(Cc1ccccc1)C(=O)N1CC(=Cc2ccc(Cl)c(Cl)c2)C(=O)C(=Cc2ccc(Cl)c(Cl)c2)C1 (stereo not drawn) [RA190CA]
IC50 (HeLa cells; [3]): 51 nM | IC50 (SKOV3 cells; [4]): 84 nM

O=C1C(=Cc2ccc([N+](=O)[O-])cc2)C2CCC(N2)C1=Cc1ccc([N+](=O)[O-])cc1 [RA331]
IC50 (HeLa cells; [1]): 236 nM | IC50 (SKOV3 cells; [2]): 301 nM

O=C1C(=Cc2ccc(Cl)c(C(F)(F)F)c2)CNCC1=Cc1ccc(Cl)c(C(F)(F)F)c1 [RA-CTF]
IC50 (HeLa cells; [3]): 324 nM | IC50 (SKOV3 cells; [4]): 457 nM

O=C(O)CCC(=O)NC(Cc1ccccc1)C(=O)N1CC(=Cc2ccc(Cl)c(Cl)c2)C(=O)C(=Cc2ccc(Cl)c(Cl)c2)C1 (stereo not drawn) [RA190SA]
IC50 (HeLa cells; [3]): 121 nM | IC50 (SKOV3 cells; [4]): 253 nM

CC(C)CC(N)C(=O)N1CC(=Cc2ccc(Cl)c(Cl)c2)C(=O)C(=Cc2ccc(Cl)c(Cl)c2)C1 (stereo not drawn) [RA228]
IC50 (HeLa cells; [3]): 66 nM | IC50 (SKOV3 cells; [4]): 98 nM

NC(Cc1ccccc1)C(=O)N1CC(=Cc2ccc(Cl)c(C(F)(F)F)c2)C(=O)C(=Cc2ccc(Cl)c(C(F)(F)F)c2)C1 (stereo not drawn) [RA-CTFP]
IC50 (HeLa cells; [3]): 56 nM | IC50 (SKOV3 cells; [4]): 81 nM

O=C1C(=Cc2ccc(Cl)c(Cl)c2)CNCC1=Cc1ccc(Cl)c(Cl)c1 [RA7]
IC50 (HeLa cells; [3]): 532 nM | IC50 (SKOV3 cells; [4]): 654 nM

O=C(CCl)N[C@@H](Cc1ccccc1)C(=O)N1C/C(=C\c2ccc(Cl)c(Cl)c2)C(=O)/C(=C/c2ccc(Cl)c(Cl)c2)C1 [RA371]
IC50 (HeLa cells; Homo sapiens, HeLa, Table 1, XTT assay, read-out: IC50 HeLa): 44 nM | IC50 (SKOV3 cells; Homo sapiens, SK-OV-3, Table 1, XTT assay, read-out: IC50 SKOV3): 47 nM

O=C1C(=Cc2ccc(Cl)c(Cl)c2)CN(C(=O)C(Cc2ccccc2)NS(=O)(=O)c2ccc(-c3ccno3)s2)CC1=Cc1ccc(Cl)c(Cl)c1 (stereo not drawn) [RA190IAS]
IC50 (HeLa cells; [3]): 211 nM | IC50 (SKOV3 cells; [4]): 342 nM

CS(=O)(=O)NC(Cc1ccccc1)C(=O)N1CC(=Cc2ccc(Cl)c(Cl)c2)C(=O)C(=Cc2ccc(Cl)c(Cl)c2)C1 (stereo not drawn) [RA190MS]
IC50 (HeLa cells; [3]): 86 nM | IC50 (SKOV3 cells; [4]): 133 nM

CCC(C)C(N)C(=O)N1CC(=Cc2ccc(Cl)c(Cl)c2)C(=O)C(=Cc2ccc(Cl)c(Cl)c2)C1 (stereo not drawn) [RA7-Ile]
IC50 (HeLa cells; [3]): 72 nM | IC50 (SKOV3 cells; [4]): 101 nM

C=CC(=O)N1C2CCC1C(=Cc1ccc(-c3cccnc3)cc1)C(=O)C2=Cc1ccc(-c2cccnc2)cc1 [RA340]
IC50 (HeLa cells; [1]): 184 nM | IC50 (SKOV3 cells; [2]): 259 nM

CC(=O)NCCCCC(N)C(=O)NC(Cc1ccccc1)C(=O)N1CC(=Cc2ccc(Cl)c(Cl)c2)C(=O)C(=Cc2ccc(Cl)c(Cl)c2)C1 (stereo not drawn) [RA310Ac]
IC50 (HeLa cells; [3]): 195 nM | IC50 (SKOV3 cells; [4]): 284 nM

O=C1C(=Cc2ccc(Cl)c(Cl)c2)CN(C(=O)C(Cc2ccccc2)NC(=O)c2ccccc2)CC1=Cc1ccc(Cl)c(Cl)c1 (stereo not drawn) [RA190Bn]
IC50 (HeLa cells; [3]): 86 nM | IC50 (SKOV3 cells; [4]): 121 nM

O=C1C(=Cc2ccc(Cl)c(Cl)c2)C2CCC(N2)C1=Cc1ccc(Cl)c(Cl)c1 [RA329]
IC50 (HeLa cells; [1]): 407 nM | IC50 (SKOV3 cells; [2]): 471 nM

Cl.NCCCCC(N)C(=O)NC(Cc1ccccc1)C(=O)N1CC(=Cc2ccc(Cl)c(Cl)c2)C(=O)C(=Cc2ccc(Cl)c(Cl)c2)C1 (stereo not drawn) [RA310]
IC50 (HeLa cells; [3]): 543 nM | fold decreased potency compared to RA190 (HeLa cells; cytotoxicity, Table 1 cell lines (HeLa, SKOV3)): 3 fold | IC50 (SKOV3 cells; [4]): 446 nM

CC(=O)N1C2CCC1C(=Cc1ccc(Cl)c(Cl)c1)C(=O)C2=Cc1ccc(Cl)c(Cl)c1 [RA335]
IC50 (HeLa cells; [1]): 161 nM | IC50 (SKOV3 cells; [2]): 251 nM

CNC(=O)NC(Cc1ccccc1)C(=O)N1CC(=Cc2ccc(Cl)c(Cl)c2)C(=O)C(=Cc2ccc(Cl)c(Cl)c2)C1 (stereo not drawn) [RA190MU]
IC50 (HeLa cells; [3]): 141 nM | IC50 (SKOV3 cells; [4]): 239 nM

C=CC(=O)NC(Cc1ccccc1)C(=O)N1CC(=Cc2ccc([N+](=O)[O-])cc2)C(=O)C(=Cc2ccc([N+](=O)[O-])cc2)C1 (stereo not drawn) [RA183Acr]
IC50 (HeLa cells; [3]): 49 nM | IC50 (SKOV3 cells; [4]): 64 nM

O=C1C(=CC=Cc2ccccc2)CNCC1=CC=Cc1ccccc1 [RA-Cinn]
IC50 (HeLa cells; [3]): > 5000 nM | IC50 (SKOV3 cells; [4]): > 5000 nM

O=C(CCl)NC(Cc1ccccc1)C(=O)N1CC(=Cc2csc(Br)c2)C(=O)C(=Cc2csc(Br)c2)C1 (stereo not drawn) [RA-BTPCA]
IC50 (HeLa cells; [3]): 132 nM | IC50 (SKOV3 cells; [4]): 189 nM

O=C(CCCC[C@@H]1SCC2NC(=O)NC21)N[C@@H](Cc1ccccc1)C(=O)N1C/C(=C\c2ccc(Cl)c(Cl)c2)C(=O)/C(=C/c2ccc(Cl)c(Cl)c2)C1 (stereo partly drawn) [RA190B, reference compound]
IC50 (HeLa cells; [3]): 346 nM

NC(Cc1ccccc1)C(=O)N1CC(=Cc2ccc(Cl)cc2)C(=O)C(=Cc2ccc(Cl)cc2)C1 (stereo not drawn) [RA-4Cl]
IC50 (HeLa cells; [3]): 71 nM | IC50 (SKOV3 cells; [4]): 83 nM

O=C1C(=Cc2ccc(Cl)c(Cl)c2)CN(C(=O)C(Cc2ccccc2)NC(=O)c2cccnc2)CC1=Cc1ccc(Cl)c(Cl)c1 (stereo not drawn) [RA233]
IC50 (HeLa cells; [3]): 76 nM | IC50 (SKOV3 cells; [4]): 98 nM

C=Cc1ccc(C(=O)NC(Cc2ccccc2)C(=O)N2CC(=Cc3ccc(Cl)c(Cl)c3)C(=O)C(=Cc3ccc(Cl)c(Cl)c3)C2)cc1 (stereo not drawn) [RA190VBA]
IC50 (HeLa cells; [3]): 94 nM | IC50 (SKOV3 cells; [4]): 178 nM

CC(=O)N[C@@H](Cc1ccccc1)C(=O)N1C/C(=C\c2ccc(Cl)c(Cl)c2)C(=O)/C(=C/c2ccc(Cl)c(Cl)c2)C1 [RA190Ac]
IC50 (HeLa cells; [3]): 46 nM | IC50 (SKOV3 cells; [4]): 68 nM

O=C1C(=Cc2ccc(Cl)c(Cl)c2)CN(C(=O)C(Cc2ccccc2)NC(=O)c2cnccn2)CC1=Cc1ccc(Cl)c(Cl)c1 (stereo not drawn) [RA190PyC]
IC50 (HeLa cells; [3]): 65 nM | IC50 (SKOV3 cells; [4]): 84 nM

C=CC(=O)N1C2CCC1C(=Cc1ccc(Cl)c(Cl)c1)C(=O)C2=Cc1ccc(Cl)c(Cl)c1 [RA334]
IC50 (HeLa cells; [1]): 101 nM | IC50 (SKOV3 cells; [2]): 186 nM

CCCC(CCC)C(=O)NC(Cc1ccccc1)C(=O)N1CC(=Cc2ccc(Cl)c(Cl)c2)C(=O)C(=Cc2ccc(Cl)c(Cl)c2)C1 (stereo not drawn) [RA190VA]
IC50 (HeLa cells; [3]): 74 nM | IC50 (SKOV3 cells; [4]): 87 nM

Cn1cncc1S(=O)(=O)NC(Cc1ccccc1)C(=O)N1CC(=Cc2ccc(Cl)c(Cl)c2)C(=O)C(=Cc2ccc(Cl)c(Cl)c2)C1 (stereo not drawn) [RA190NMS]
IC50 (HeLa cells; [3]): 78 nM | IC50 (SKOV3 cells; [4]): 94 nM

C=CC(=O)N1C2CCC1C(=Cc1ccccc1)C(=O)C2=Cc1ccccc1 [RA336]
IC50 (HeLa cells; [1]): 146 nM | IC50 (SKOV3 cells; [2]): 185 nM

CCC(C)C(NC(=O)C(F)(F)F)C(=O)N1CC(=Cc2ccc(Cl)c(Cl)c2)C(=O)C(=Cc2ccc(Cl)c(Cl)c2)C1 (stereo not drawn) [RA7-IleC]
IC50 (HeLa cells; [3]): 61 nM | IC50 (SKOV3 cells; [4]): 77 nM

CC(N)C(=O)N1CC(=Cc2ccc(Cl)c(Cl)c2)C(=O)C(=Cc2ccc(Cl)c(Cl)c2)C1 (stereo not drawn) [RA7-Ala]
IC50 (HeLa cells; [3]): 68 nM | IC50 (SKOV3 cells; [4]): 92 nM

Cc1ccc(S(=O)(=O)NC(Cc2ccccc2)C(=O)N2CC(=Cc3ccc(Cl)c(Cl)c3)C(=O)C(=Cc3ccc(Cl)c(Cl)c3)C2)cc1 (stereo not drawn) [RA231]
IC50 (HeLa cells; [3]): 111 nM | IC50 (SKOV3 cells; [4]): 167 nM

C=CC(=O)NC(Cc1ccccc1)C(=O)N1C2CCC1C(=Cc1ccc(Cl)c(Cl)c1)C(=O)C2=Cc1ccc(Cl)c(Cl)c1 (stereo not drawn) [RA339]
IC50 (HeLa cells; [1]): 46 nM | IC50 (SKOV3 cells; [2]): 54 nM

O=C1C(=Cc2ccc(-c3cccnc3)cc2)C2CCC(N2)C1=Cc1ccc(-c2cccnc2)cc1 [RA332]
IC50 (HeLa cells; [1]): 243 nM | IC50 (SKOV3 cells; [2]): 376 nM

C=CC(=O)N[C@@H](Cc1ccccc1)C(=O)N1C/C(=C\c2ccc(Cl)c(Cl)c2)C(=O)/C(=C/c2ccc(Cl)c(Cl)c2)C1 [RA190 ACR]
IC50 (HeLa cells; [3]): 42 nM | IC50 (SKOV3 cells; [4]): 62 nM

NC(Cc1ccccc1)C(=O)N1CC(=Cc2ccc([N+](=O)[O-])cc2)C(=O)C(=Cc2ccc(Cl)c(Cl)c2)C1 (stereo not drawn) [RA-asyP]
IC50 (HeLa cells; [3]): 48 nM | IC50 (SKOV3 cells; [4]): 62 nM

O=C1C(=Cc2ccc([N+](=O)[O-])cc2)CNCC1=Cc1ccc(Cl)c(Cl)c1 [RA-asy]
IC50 (HeLa cells; [3]): 312 nM | IC50 (SKOV3 cells; [4]): 398 nM

O=C1C(=Cc2ccc(Cl)c(Cl)c2)CN(C(=O)C(Cc2ccccc2)NC(=O)C(F)(F)F)CC1=Cc1ccc(Cl)c(Cl)c1 (stereo not drawn) [RA230]
IC50 (HeLa cells; [3]): 47 nM | IC50 (SKOV3 cells; [4]): 69 nM

O=C1C(=Cc2ccc(Cl)c(Cl)c2)CN(C(=O)C(Cc2ccccc2)NC(=O)N2CCOCC2)CC1=Cc1ccc(Cl)c(Cl)c1 (stereo not drawn) [RA232]
IC50 (HeLa cells; [3]): 61 nM | IC50 (SKOV3 cells; [4]): 77 nM

CC(C)C(N)C(=O)N1CC(=Cc2ccc(Cl)c(Cl)c2)C(=O)C(=Cc2ccc(Cl)c(Cl)c2)C1 (stereo not drawn) [RA7-Val]
IC50 (HeLa cells; [3]): 64 nM | IC50 (SKOV3 cells; [4]): 72 nM
